test: in vitro; details: human, hela cells, % viability

Row | SMILES | viability at 28.5 h, 10 µM [%]
1 | O=C(O)c1cccc(N2C(=O)CC(n3cnc4ccccc43)C2=O)c1 (stereo not drawn) [CBK291145] | 89.8
2 | COc1ccc(C(=O)Nc2nc3ccc(S(N)(=O)=O)cc3s2)cc1 [CBK291147] | 96.9
3 | CCCCn1nc(C(=O)N2CCCCC2c2ncc(-c3cccc(F)c3)[nH]2)ccc1=O (stereo not drawn) [CBK291149] | 98.6
4 | Cc1cc(NC(=O)C(C)Oc2ccccc2)nc2c1c(=O)oc1ccccc12 (stereo not drawn) [CBK291153] | 95.8
5 | c1ccc(-c2nc(-c3ccncc3)[nH]c2-c2ccccc2)cc1 [CBK291155] | 85.3
6 | Oc1ccc(Nc2cc(-c3ccccc3)ncn2)cc1 [CBK291157] | 79.8
7 | COc1ccc(Oc2nccc(-c3ccccc3)c2C#N)cc1 [CBK291158] | 98.7
8 | O=c1c(-c2cc(O)[nH]n2)c(O)c2ccccc2n1Cc1ccccc1 [CBK291160] | 97.2
9 | Cc1cc(NC(=O)c2cccc(C(F)(F)F)c2)nc2c1c(=O)oc1ccccc12 [CBK291163] | 101
10 | O=c1c(Cl)c(O)c2ccccc2n1Cc1ccccc1 [CBK291164] | 91.2
11 | O=c1c(Cc2ccccc2)c(O)c2cccc3c2n1CCC3 [CBK291166] | 93.3
12 | COc1ccc2ncc3c(c2c1)NCCNC3=O [CBK291168] | 88.4
13 | O=C(O)c1cccc2c1C(=O)N(Cc1ccccc1F)C2 [CBK291172] | 86.8
14 | O=C(Nc1nccs1)c1c(O)n(Cc2ccccc2)c2ccccc2c1=O [CBK291173] | 96.6
15 | COc1cc(Br)cc(C2NC(=O)c3cnc(SC)nc3N2)c1O (stereo not drawn) [CBK291179] | 91.9
16 | Cc1nn(-c2ccccn2)c(N)c1C1CC(=O)N(c2ccc(C(=O)O)cc2)C1=O (stereo not drawn) [CBK291180] | 95.2
17 | O=c1c([N+](=O)[O-])c(O)c2ccccc2n1Cc1ccccc1 [CBK291182] | 94.8
18 | O=C(O)c1cccc2c1C(=O)N(Cc1ccc(F)cc1)C2 [CBK291183] | 87.3
19 | CCOc1ccc(CCNC(=O)c2cnc(Nc3ccccc3OC)c3ccccc23)cc1OCC [CBK291185] | 94.5
20 | COc1ccc(Sc2cc3n(c(=O)n2)CCc2cc(OC)c(OC)cc2-3)cc1 [CBK291186] | 81.9
21 | O=c1c(-c2ccccc2)c(O)cc(-c2ccccc2)n1Cc1ccccc1 [CBK291188] | 115

Row | SMILES | viability at 28.5 h, 10 µM [%]
22 | CCCc1nc(SC)ncc1C(=O)NCc1ccccn1 [CBK291190] | 108
23 | Cc1[nH]c(=O)c(C(=O)Nc2ccc(-n3ccc(C(N)=O)n3)cc2)cc1-c1ccccc1 [CBK291194] | 109
24 | COc1ccc(Cl)cc1C(=O)Nc1cc(C)c2c(=O)oc3ccccc3c2n1 [CBK291196] | 108
25 | Cc1ccc(Nc2ncc(C(=O)NCCCN3CCCCCC3)c3ccccc23)cc1Cl [CBK291197] | 105
26 | CCN(CC)CCNC(=O)c1c(O)c2ccccc2n(Cc2ccccc2)c1=O [CBK291199] | 113
27 | O=C(O)c1cccc2c1C(=O)N(Cc1c(F)cccc1Cl)C2 [CBK291201] | 111
28 | c1ccc(-c2nc(-c3ccncc3)sc2-c2ccccc2)cc1 [CBK291203] | 116
29 | Cc1cc(NC(=O)c2ccc(N3C(=O)CCC3=O)cc2)nc2c1c(=O)oc1ccccc12 [CBK291205] | 114
30 | O=C(Nc1cccnc1)c1c(O)n(Cc2ccccc2)c2ccccc2c1=O [CBK291206] | 110
31 | O=C(Nc1ncccc1O)c1c(O)c2ccccc2n(Cc2ccccc2)c1=O [CBK291211] | 103
32 | CCCCCn1c(=O)c(-c2nc3ccccc3c(=O)[nH]2)c(O)c2ccccc21 [CBK291215] | 110
33 | O=C(c1cc[nH]n1)N1CCCCC1c1ncc(-c2cccc(F)c2)[nH]1 (stereo not drawn) [CBK291217] | 94.6
34 | COc1cc(OC)cc(C(=O)Nc2cc(C)c3c(=O)oc4ccccc4c3n2)c1 [CBK291221] | 95.2
35 | Cc1[nH]c(=O)c(C(=O)N(C)C(C)c2ccc(Cl)cc2)cc1-c1ccc(O)cc1 (stereo not drawn) [CBK291225] | 98.8
36 | COc1cc(CN2Cc3cccc(C(=O)O)c3C2=O)cc(OC)c1OC [CBK291227] | 108
37 | Cc1nc2ncnc(N3CCc4ccccc43)c2[nH]1 [CBK291228] | 89.2
38 | Cc1cc(NC(=O)COc2ccc(Cl)cc2)nc2c1c(=O)oc1ccccc12 [CBK291230] | 92.9
39 | COc1ccc(C(=O)Nc2cc(C)c3c(=O)oc4ccccc4c3n2)c(OC)c1 [CBK291231] | 94.5
40 | CN(C)CCCn1cnc2c1c(=O)[nH]c(=O)n2Cc1ccccc1 [CBK291234] | 95.3
41 | CN(C)CCn1cnc2c1c(=O)[nH]c(=O)n2Cc1ccccc1 [CBK291235] | 96.9
42 | COc1ccc(CN2Cc3cccc(C(=O)O)c3C2=O)cc1OC [CBK291237] | 83.5

Row | SMILES | viability at 28.5 h, 10 µM [%]
43 | Cc1cc(NC(=O)c2cccc(Br)c2)nc2c1c(=O)oc1ccccc12 [CBK291238] | 94.3
44 | CCOc1ccccc1C(=O)Nc1cc(C)c2c(=O)oc3ccccc3c2n1 [CBK291240] | 87.4
45 | CCc1c(C(=O)NC(C)c2cccc(Cl)c2)cnc2cc(O)nn12 (stereo not drawn) [CBK291243] | 95
46 | CCc1c(C(=O)Nc2ccc(C(F)(F)F)cc2)cnc2ncnn12 [CBK291244] | 90.4
47 | O=C(O)c1cccc2c1C(=O)N(Cc1cccs1)C2 [CBK291246] | 95.3
48 | Cc1cc(NC(=O)C2CCCCC2)nc2c1c(=O)oc1ccccc12 [CBK291247] | 83.1
49 | Cc1ccc(Nc2ncc(C(=O)NCCCN3CCN(c4cccc(Cl)c4)CC3)c3ccccc23)cc1Cl [CBK291251] | 90.1
50 | CC(c1ccccc1)N1Cc2cccc(C(=O)O)c2C1=O (stereo not drawn) [CBK291252] | 97.6
51 | CC1(c2cc(F)ccc2F)NC(=O)N(c2ccncc2)C1=O (stereo not drawn) [CBK291253] | 92.9
52 | COc1ccc(Oc2ncnc3c2[nH]c2ccccc23)cc1 [CBK291254] | 88.9
53 | O=c1cc(O)c2ccccc2n1Cc1ccccc1Cl [CBK291255] | 93.4
54 | Cc1cc(NC(=O)c2cc3ccccc3o2)nc2c1c(=O)oc1ccccc12 [CBK291256] | 90.2
55 | Cc1cc(NC(=O)CN2CCC(Cc3ccccc3)CC2)nc2c1c(=O)oc1ccccc12 [CBK291261] | 87.2
56 | Cc1cc(NC(=O)c2ccc(Cl)c([N+](=O)[O-])c2)nc2c1c(=O)oc1ccccc12 [CBK291263] | 96.7
57 | O=C1COc2ccccc2C/C=C/CC2(CCN(C(=O)c3c[nH]cn3)CC2)C(=O)NCCN1 [CBK291990] | 98.3
58 | O=C1NCCNC(=O)C2(C/C=C/COc3ccccc31)CCCN(C(=O)c1cnco1)C2 (stereo not drawn) [CBK291993] | 106
59 | Cc1noc(C)c1C(=O)N1CC[C@H]2NC(=O)c3ccccc3OCC/C=C/C[C@H]2C1 [CBK291994] | 100
60 | O=C1NCCNC(=O)C2(C/C=C/COc3ccccc31)CCN(C(=O)CCC1CCCC1)CC2 [CBK291995] | 118
61 | O=C1COc2ccccc2C/C=C/CC2(CCNCC2)C(=O)NCCN1 [CBK291996] | 105
62 | O=C1COc2ccccc2C/C=C/CC2(CCN(C(=O)c3cnccn3)CC2)C(=O)NCCN1 [CBK291997] | 106
63 | O=C1NCCNC(=O)C2(C/C=C/COc3ccccc31)CCN(C(=O)c1ccc3[nH]nnc3c1)CC2 [CBK292000] | 106

Row | SMILES | viability at 28.5 h, 10 µM [%]
64 | O=C(O)c1ccc(CN2CCC3(C/C=C/CNC(=O)c4ccccc4OCCNC3=O)CC2)cc1 [CBK292002] | 109
65 | CCC(=O)N1CCC2(C/C=C/CC(=O)Nc3cccc(n3)C3CN(CCO3)C(=O)CN(C)C2=O)CC1 (stereo not drawn) [CBK292004] | 105
66 | Cc1cc(C(=O)N2CC[C@H]3NC(=O)c4ccccc4OCCCCC[C@H]3C2)no1 [CBK292005] | 91.8
67 | O=C1NC/C=C/CC2(CCN(C(=O)CCc3cccnc3)CC2)C(=O)NCCOc2ccccc21 [CBK292007] | 88.3
68 | O=C1COc2ccccc2CCCCC2(CCCN(CC(=O)N3CCCC3)C2)CN1 (stereo not drawn) [CBK292009] | 105
69 | Cc1cnn(CC(=O)N2CC[C@H]3NC(=O)c4ccccc4OCCCCC[C@H]3C2)c1 [CBK292010] | 107
70 | CC(=O)NCC(=O)N1CCC[C@@H]2[C@H]1CCCCc1ccccc1OCC(=O)N2C [CBK292011] | 117
71 | COc1ccc(CN2CC[C@H]3NC(=O)CNC(=O)C4(C/C=C/C[C@H]3C2)CCN(C(C)=O)CC4)cc1 [CBK292013] | 90.4
72 | O=C1NCC2(C/C=C/CCOc3ccccc31)CCN(C(=O)CCN1CCCC1=O)CC2 [CBK292016] | 99.3
73 | O=C1NCC2(C/C=C/CCOc3ccccc31)CCN(C(=O)CCN1CCCC1)CC2 [CBK292020] | 87.5
74 | Cc1ccc(CN2CCCC3(C/C=C/COc4ccccc4C(=O)NCCNC3=O)C2)cn1 (stereo not drawn) [CBK292022] | 94
75 | O=C1NCCNC(=O)C2(C/C=C/COc3ccccc31)CCN(Cc1ccccc1F)CC2 [CBK292024] | 101
76 | COc1cccc(CN2CCC3(C/C=C/COc4ccccc4C(=O)NCCNC3=O)CC2)c1F [CBK292025] | 108
77 | CN1CCOc2ccccc2C(=O)NC/C=C/CC2(CCCNC2)C1=O (stereo not drawn) [CBK292027] | 107
78 | Cn1nccc1CCC(=O)N1CC[C@H]2NC(=O)c3ccccc3OCCCCC[C@H]2C1 [CBK292028] | 97.4
79 | Cn1cnc(C(=O)N2CC[C@H]3NC(=O)c4ccccc4OCCCCC[C@H]3C2)c1 [CBK292031] | 88.9
80 | O=C1COc2ccccc2C/C=C/CC2(CCCN(C(=O)CN3CCCC3=O)C2)CN1 (stereo not drawn) [CBK292032] | 98.1
81 | O=C1COc2ccccc2CCCC[C@@H]2CNCC[C@H]2N1 [CBK292038] | 105
82 | CNC(=O)CN1CCC[C@@H]2NC(=O)COc3ccccc3C(=O)N[C@@H]3CCOC[C@@H]3C/C=C/C[C@@H]21 [CBK292040] | 100
83 | O=C1N[C@@H]2CCN(C(=O)Cc3ccc(O)cc3)C[C@@H]2C/C=C/CCOc2ccccc21 [CBK292043] | 103
84 | O=C1COc2ccccc2CCCC[C@@H]2CN(C(=O)CCN3CCCC3=O)CC[C@H]2N1 [CBK292044] | 91.8
